Experimental findings from publication PMC7753040, “Discovery of a Potent RIPK3 Inhibitor for the Amelioration of Necroptosis-Associated Inflammatory Injury” (Frontiers in Cell and Developmental Biology, 2020) are described below.

Molecules are shown by their SMILES. pIC50: −log10 of the molar value.

One series relates to NIH3T3-RIPK3 cells. In words: RIPK3 dimerization-induced cell death in NIH3T3-RIPK3 cells (AP20187). The class given is cell-based, mouse. The settings on record: 2 h pretreatment, AP20187 60 nM 24 h. The source says: Human colon cancer HT-29 and mouse fibrosarcoma L929 cells were from ATCC. Mouse embryonic fibroblasts (MEF), HT-29 cells stably expressing RIPK3-shRNA and shRNA resistant scramble Flag-tagged RIPK3 (W46), and NIH3T3 cell line stably expressing RIPK3 fused to mutant FK506-binding protein (NIH3T3-RIPK3) were kindly provided by Dr. Xiaodong Wang [National Institute of Biological Sciences (NIBS), Beijing]. HeLa-MLKL (1-190) cell line was a gift from Dr. Zhigao Wang (University of Texas Southwestern Medical Center at Dallas). These cells were cultured in Dulbecco’s modified Eagle’s medium (Hyclone) supplemeted with 10% fetal bovine serum (Invitrogen) and 2 mM L-glutamine (Invitrogen) in a humidified incubator at 37°C and 5% CO2. […]
(§1) Cells were seeded in 96-well plates and then treated as indicated. The cell viability was determined by assessment of ATP levels using the CellTiter-Glo Luminescent Cell Viability Assay kit following the manufacture’s instructions (Promega). Luminescence was calculated with SpectraMax i3x (Molecular Devices).
In vitro kinase activity assays using recombinant RIPK3 and RIPK1 were performed as described in the section “Materials and Methods.” Data represent mean value ± standard deviation. […] Cell viability was determined by measuring ATP levels. […] Cell viability was determined by measuring ATP levels. […]

A further series concerns the target T1, RIPK1/RIPK3 complex (Homo sapiens, UniProt Q9Y572).
T1 construct: expressed in transfected cells; host or cells: HT-29 (W46), gift of Dr. Xiaodong Wang
Briefly: RIPK1/RIPK3 necrosome formation in HT-29 cells stably expressing Flag-RIPK3 (immunoprecipitation). The class given is cell-based. As to conditions: TNF-α/Smac/z-VAD 8 h. As for the experimental part:
The cell pellets were harvested and dissolved in lysis buffer (20 mM Tris–HCl, pH 7.4 150 mM NaCl, 1% Triton X-100, 1 mM Na3VO4, 10% glycerol, 25 mM β-glycerol-phosphate, 0.1 mM PMSF, with the Sigma phosphatase inhibitors and the Roche Pierce protease inhibitor set). The re-suspended cell pellet was then incubated on ice for 20 min, followed by centrifugation at 13000 × g for 20 min at 4°C. The supernatants were collected and protein concentrations were measured using the BCA Protein Assay Kit (Thermo Fisher Scientifc, United States). Finally, cell lysates were subjected for western-blot analysis of the indicated antibodies.
Cell lysates were prepared for immunoprecipitation using an anti-Flag antibody. The levels of RIPK3 and RIPK1 in the immunocomplex were determined by western blot analysis.

The next series deals with C57BL/6 mice. In words: TNF-induced systemic inflammatory response syndrome in mice.
The next series deals with HT-29 cells. Briefly: TNF-induced necroptosis in HT-29 cells (cell viability, ATP levels). It is filed as cell-based, human. The settings on record: 2 h pretreatment, then TNF-α 40 ng/ml, Smac mimetic 100 nM, z-VAD 20 μM for 48 h, focused library, compared to GSK’872. The procedure: as §1
To discover novel inhibitors of necroptosis, we designed and synthesized a focused library with novel structures based on the GSK’872 scaffold.
Cell viability was assessed by measuring ATP levels. […] T, TNF-α; S, Smac mimetic; Z, z-VAD.

Another series has as its target CYP1A2 (Homo sapiens, UniProt P05177). In words: Cytochrome P450 inhibition, CYP1A2. The class given is in vitro ADME. The procedure: (§2) Cytochrome P450 (CYP) inhibitory potency was determined by industrial standard methods as reported previously ([Dong et al., 2015]). Methods to determine potassium channel hERG inhibition and in vivo pharmacokinetic parameters have been previously published ([Lu et al., 2017]).

Another series concerns mouse BMDM. In words: LPS/z-VAD-induced expression of inflammatory cytokines in mouse BMDM (Q-PCR). It is filed as cell-based. As to conditions: 2 h pretreatment, LPS 20 ng/ml plus z-VAD 20 μM, 7 h, mRNA. As for the experimental part:
Total RNA was extracted using TRIzol Reagent (Invitrogen) from cell pellets. cDNA was synthesized using a Revert Aid First Strand cDNA kit (Thermo Fisher Scientifc). Real-time PCR was performed using corresponding primers and Power SYBR® Green PCR Master Mix (Invitrogen). The data were normalized to GAPDH. The primer sequences are as follows: ICP6 Forward: […], Reverse: GGT […]; TNFα Forward: […], Reverse: […]; CCL3 Forward: […], Reverse: […]; CXCL1 Forward: GCACCC […], Reverse: […] CAGA; GAPDH Forward: […], Reverse: […].

A further series concerns the target CYP2C19 (Homo sapiens, UniProt P33261). Briefly: Cytochrome P450 inhibition, CYP2C19. The class given is in vitro ADME. The procedure: as §2
The next series concerns the target CYP2D6 (Homo sapiens, UniProt P10635). In words: Cytochrome P450 inhibition, CYP2D6. The class given is in vitro ADME. The procedure: as §2
A short description of series [1]: Metabolic stability in rat liver microsomes. It is filed as in vitro ADME.
The target of another series is hERG (Homo sapiens, UniProt Q12809). Briefly: hERG inhibition (standard patch clamp). The class given is cell-based. As for the experimental part:
as §2

The mark [2] stands for this setting: 5 mg/kg i.p. 15 min before mouse TNF-α 6.5 μg/mouse i.v.

Sequence of CYP2D6 (P10635 whole entry): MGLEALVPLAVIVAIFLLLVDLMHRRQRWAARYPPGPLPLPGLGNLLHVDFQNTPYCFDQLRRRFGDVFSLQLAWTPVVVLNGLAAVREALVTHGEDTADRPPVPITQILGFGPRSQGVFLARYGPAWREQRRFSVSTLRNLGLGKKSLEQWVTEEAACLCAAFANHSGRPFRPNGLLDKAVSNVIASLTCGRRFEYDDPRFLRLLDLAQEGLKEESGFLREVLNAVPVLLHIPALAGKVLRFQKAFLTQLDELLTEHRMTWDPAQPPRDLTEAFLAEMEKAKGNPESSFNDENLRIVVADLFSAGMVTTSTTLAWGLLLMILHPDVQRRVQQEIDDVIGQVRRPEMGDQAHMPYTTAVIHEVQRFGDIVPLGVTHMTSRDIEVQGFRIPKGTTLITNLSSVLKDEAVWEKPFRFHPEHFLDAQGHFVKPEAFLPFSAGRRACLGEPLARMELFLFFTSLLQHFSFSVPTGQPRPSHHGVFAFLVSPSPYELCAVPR
Sequence of CYP2C19 (P33261 whole entry): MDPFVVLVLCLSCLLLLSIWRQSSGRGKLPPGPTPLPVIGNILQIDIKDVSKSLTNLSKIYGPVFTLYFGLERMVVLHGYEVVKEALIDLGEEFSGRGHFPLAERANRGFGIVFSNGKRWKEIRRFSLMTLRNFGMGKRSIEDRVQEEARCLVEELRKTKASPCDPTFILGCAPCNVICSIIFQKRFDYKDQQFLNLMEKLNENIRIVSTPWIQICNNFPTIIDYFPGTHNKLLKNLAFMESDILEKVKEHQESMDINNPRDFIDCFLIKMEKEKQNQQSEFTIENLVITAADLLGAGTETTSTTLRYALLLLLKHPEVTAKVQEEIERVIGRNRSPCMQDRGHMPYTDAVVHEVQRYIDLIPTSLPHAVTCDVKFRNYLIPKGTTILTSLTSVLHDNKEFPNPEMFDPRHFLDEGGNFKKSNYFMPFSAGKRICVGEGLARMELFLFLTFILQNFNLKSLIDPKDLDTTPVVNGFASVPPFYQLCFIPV
Sequence of CYP1A2 (P05177 whole entry): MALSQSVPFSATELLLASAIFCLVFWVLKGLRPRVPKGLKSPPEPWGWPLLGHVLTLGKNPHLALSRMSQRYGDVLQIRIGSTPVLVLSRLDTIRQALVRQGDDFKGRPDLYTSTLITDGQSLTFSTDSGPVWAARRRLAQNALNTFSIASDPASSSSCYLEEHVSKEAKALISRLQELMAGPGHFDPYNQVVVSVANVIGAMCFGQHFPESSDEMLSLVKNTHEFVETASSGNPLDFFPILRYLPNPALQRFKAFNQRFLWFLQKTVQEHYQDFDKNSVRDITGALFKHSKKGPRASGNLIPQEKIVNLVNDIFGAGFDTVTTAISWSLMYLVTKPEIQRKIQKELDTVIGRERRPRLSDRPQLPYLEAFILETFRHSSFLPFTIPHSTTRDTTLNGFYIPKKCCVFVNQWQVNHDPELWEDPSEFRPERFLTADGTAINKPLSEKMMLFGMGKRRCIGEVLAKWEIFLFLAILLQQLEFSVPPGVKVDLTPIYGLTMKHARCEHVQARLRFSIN
T1 sequence (Q9Y572 whole entry): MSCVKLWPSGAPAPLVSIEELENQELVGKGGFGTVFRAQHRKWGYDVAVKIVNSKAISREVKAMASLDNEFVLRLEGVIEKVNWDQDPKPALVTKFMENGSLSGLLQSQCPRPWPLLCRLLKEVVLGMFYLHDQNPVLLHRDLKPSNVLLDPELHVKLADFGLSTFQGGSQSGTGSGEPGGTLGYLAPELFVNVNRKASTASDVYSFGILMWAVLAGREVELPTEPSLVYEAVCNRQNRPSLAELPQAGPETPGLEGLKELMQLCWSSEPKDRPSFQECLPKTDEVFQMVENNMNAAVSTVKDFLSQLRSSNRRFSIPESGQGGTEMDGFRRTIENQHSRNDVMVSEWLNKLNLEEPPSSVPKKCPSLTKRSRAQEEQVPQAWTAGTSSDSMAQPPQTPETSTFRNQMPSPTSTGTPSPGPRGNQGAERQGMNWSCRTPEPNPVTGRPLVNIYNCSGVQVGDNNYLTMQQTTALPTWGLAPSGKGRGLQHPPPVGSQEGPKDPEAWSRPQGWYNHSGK
T1 sequence (Q13546 whole entry partner): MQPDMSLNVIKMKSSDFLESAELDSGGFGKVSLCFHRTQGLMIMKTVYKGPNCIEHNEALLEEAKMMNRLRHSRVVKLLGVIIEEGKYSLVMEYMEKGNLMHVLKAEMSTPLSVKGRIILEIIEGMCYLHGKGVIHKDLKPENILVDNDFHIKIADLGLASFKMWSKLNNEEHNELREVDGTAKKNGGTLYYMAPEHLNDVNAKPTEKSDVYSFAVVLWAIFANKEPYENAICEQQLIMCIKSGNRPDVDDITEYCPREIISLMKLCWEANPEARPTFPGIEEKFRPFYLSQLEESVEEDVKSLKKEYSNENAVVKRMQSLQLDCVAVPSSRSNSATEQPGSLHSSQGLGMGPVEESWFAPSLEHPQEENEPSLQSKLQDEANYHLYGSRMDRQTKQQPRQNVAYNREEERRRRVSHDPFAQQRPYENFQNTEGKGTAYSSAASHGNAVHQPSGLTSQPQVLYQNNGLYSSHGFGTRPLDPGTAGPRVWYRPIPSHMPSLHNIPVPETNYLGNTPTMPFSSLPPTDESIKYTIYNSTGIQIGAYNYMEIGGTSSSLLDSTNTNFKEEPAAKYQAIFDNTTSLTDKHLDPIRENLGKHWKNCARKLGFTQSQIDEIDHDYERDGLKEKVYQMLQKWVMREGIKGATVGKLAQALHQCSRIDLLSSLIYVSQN
Sequence of hERG (Q12809 whole entry): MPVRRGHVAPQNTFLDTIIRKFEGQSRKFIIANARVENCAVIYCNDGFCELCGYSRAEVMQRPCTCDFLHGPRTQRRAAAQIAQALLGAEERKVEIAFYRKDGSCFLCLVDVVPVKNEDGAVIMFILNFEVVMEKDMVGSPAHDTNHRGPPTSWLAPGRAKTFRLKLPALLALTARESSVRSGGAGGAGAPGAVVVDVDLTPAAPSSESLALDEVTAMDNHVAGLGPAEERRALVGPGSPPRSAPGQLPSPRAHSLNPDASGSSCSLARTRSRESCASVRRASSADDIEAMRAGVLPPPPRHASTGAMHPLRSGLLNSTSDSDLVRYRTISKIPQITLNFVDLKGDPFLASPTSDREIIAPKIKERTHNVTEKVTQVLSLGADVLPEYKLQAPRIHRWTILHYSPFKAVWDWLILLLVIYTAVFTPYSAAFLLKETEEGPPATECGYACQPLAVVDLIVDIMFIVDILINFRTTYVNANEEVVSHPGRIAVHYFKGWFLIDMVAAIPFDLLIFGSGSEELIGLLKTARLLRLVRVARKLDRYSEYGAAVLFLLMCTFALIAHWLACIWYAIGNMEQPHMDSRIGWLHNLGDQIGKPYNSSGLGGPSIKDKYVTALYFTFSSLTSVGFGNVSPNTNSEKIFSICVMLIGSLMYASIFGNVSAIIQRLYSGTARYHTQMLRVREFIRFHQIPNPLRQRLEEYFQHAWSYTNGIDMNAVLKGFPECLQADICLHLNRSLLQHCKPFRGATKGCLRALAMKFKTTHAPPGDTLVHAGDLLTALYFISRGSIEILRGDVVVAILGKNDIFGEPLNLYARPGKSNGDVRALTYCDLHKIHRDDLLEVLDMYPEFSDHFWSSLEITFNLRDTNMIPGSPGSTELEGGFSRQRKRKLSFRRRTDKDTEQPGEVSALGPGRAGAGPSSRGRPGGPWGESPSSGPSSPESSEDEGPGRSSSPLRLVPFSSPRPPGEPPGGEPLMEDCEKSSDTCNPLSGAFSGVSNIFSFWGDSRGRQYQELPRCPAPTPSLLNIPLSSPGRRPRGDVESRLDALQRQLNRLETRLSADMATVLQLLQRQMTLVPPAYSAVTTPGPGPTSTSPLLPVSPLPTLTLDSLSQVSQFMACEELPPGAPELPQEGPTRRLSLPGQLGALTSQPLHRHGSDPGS
Method for C57BL/6 mice: The status of mice was monitored by measuring anal temperature. Mice mortality was continuously monitored till 60 h after TNF-α administration. Blood was collected 4 h post TNF-α challenge and serum was isolated for further examination.
(A,B) The survival rate (A) and body temperature loss (B) were monitored. […] P-values were determined using the ONE-way ANOVA and multi-comparison test for statistics analysis. (C) After 4 h, serum was collected for mouse IL6 level analysis by ELISA. Data are represented as the mean ± standard deviation.

As for `O=S1(=O)C=C(C2CC2)c2cc3nccc(Nc4ccc5scnc5c4)c3cc21` [Zharp-99], in the series with NIH3T3-RIPK3 cells, the RIPK3 dimerization-induced necroptosis result is on record as “efficiently blocked”. The RIPK1/RIPK3 necrosome formation entry at RIPK1/RIPK3 complex is given as “did not affect”. In the series with C57BL/6 mice (setting [2]), the TNFα-induced temperature loss result was “ameliorated”. For the same compound, the “protection against TNFα-induced lethal shock (survival)” value in the series on C57BL/6 mice (setting [2]) is given as “significantly protected”. In addition, in the series on C57BL/6 mice (5 mg/kg i.p., serum 4 h post TNF-α, ELISA), the “TNFα-induced production of IL-6 in the serum” value is recorded as “reduced”. Moreover, the “inhibition of TNF-induced necroptosis” value in the series with HT-29 cells was “most efficient inhibitor”. The “% of CYP inhibiton 1A2” value on CYP1A2 (10 μM) was “did not inhibit”. For the same compound, the inhibition at 10 µM was 9.26% at CYP1A2 (human, read-out: % of CYP inhibiton 1A2); 4.15% on CYP2C19 (human, read-out: % of CYP inhibiton 2C19); -0.44% on CYP2D6 (human, read-out: % of CYP inhibiton 2D6). Also, the “LPS/z-VAD-induced expression of inflammatory cytokines including TNFα, CCL3, and CXCL1” value with mouse BMDM is “could inhibit”. On CYP2C19 (10 μM), the “% of CYP inhibiton 2C19” value was “did not inhibit”. Further, the “% of CYP inhibiton 2D6” value on CYP2D6 (10 μM) is “did not inhibit”. In [1] (rat liver microsomes), this compound had an intrinsic metabolic clearance (CLint scaled) of 67 mL/min/kg. In addition, in [1] (rat liver microsomes), the Clint result is recorded as “moderate”. In [1] (rat liver microsomes (RLM)), this compound registered a half-life of 37 min. For the same compound, the pIC50 against hERG was < 5.00.
